In paper PMC7969932, “Population pharmacokinetics and dose optimization of vancomycin in neonates” (Scientific Reports, 2021):

What was measured:
[1] = cited from earlier work
From the text: (§1) There are numerous approaches to determining the adequate dosage regimen of vancomycin in neonates. To reflect PD and PK, area-under-the-curve concentrations versus time to the minimum inhibitory concentrations (AUC: MIC) can be used.

[2] = Css,trough 15–20 μg/mL, neonates; cited from earlier work
From the text: as §1

[3] = Population pharmacokinetic modeling of vancomycin (NONMEM, one-compartment, first-order elimination; bootstrap, pc-VPC)
Method: For the analysis of vancomycin population pharmacokinetic parameters, nonlinear mixed-effect modeling was performed using NONMEM ver. 7.3 (Icon Development Solutions, Ellicott City, MD, USA) in conjunction with Perl Speaks NONMEM (PsN ver. 4.4.0), Pirana (ver. 2.9.7), and Xpose (ver. 4.0) contained in the R software package (ver. 3.5.0; http://www.r-project.org). The population analysis was conducted using the first-order conditional estimation method (FOCE) with ε–η interaction (FOCE INTER). One- and two-compartment models with first-order elimination were evaluated as potential structural pharmacokinetic models. The fixed-effect parameters were total clearance (CL) and volume of distribution (V) for the one-compartment model, and total CL, central V (V1), peripheral V (V2), and inter-compartmental CL (Q) for the two-compartment model. Possible correlations among the interindividual variability for pharmacokinetic parameters in the model were assessed by the OMEGA BLOCK functionality. Allometric scaling was applied to CL and isometric scaling was applied to V to standardize the pharmacokinetic parameters. The final allometric model was as follows: 3 CL=θCL×(WTi/70)^0.75 4 V=θV×(WTi/70)^1 where CL is the clearance in the ith individual with body weight WTi; θCL is the typical CL value in a standardized adult (70 kg); and θv is the typical V in a standardized adult (70 kg). Interindividual variability in the PK parameters was analyzed using exponential and power models. Covariance between interindividual variability was estimated using a variance–covariance matrix. Residual variability was attempted using additive, proportional, and combined models.
Covariates were investigated for the population modeling using linear, proportional, power, and exponential functions. […] When objective function value was decreased by at least 3.84 (χ^2-test, P < 0.05) from the structural model during the forward selection, the covariate was included in the model. All covariates that met the criteria were added to develop the full model. Then, during backward elimination, any covariate with an increase of at least 6.64 (χ^2-test, P < 0.01) was kept in the model. The categorical covariates tested were as follows: sex (where female = 1, male = 0), and types of delivery (where NsvD = 0, Csec = 1). The continuous covariates tested were body weight, blood urea nitrogen, SCr, protein, albumin, neutrophil, AST, ALT, CRP, WBC, height, PMA, PNA, CLcr, and gestational age.
Model validation was performed via three methods: graphical diagnostics using a goodness-of-fit plot, bootstrapping, and a pc-VPC. Individual observed vs. individual-predicted values and conditional weighted residual vs. time or population-predicted values or individual-predicted values were plotted using R for NONMEM. Bootstrap datasets were repeated 1,000 times using the final model; the pc-VPC was performed as a diagnostic plot.

[4] = 1000 resampled data sets (993 successful), per 70 kg

For `CN[C@H](CC(C)C)C(=O)N[C@H]1C(=O)N[C@@H](CC(N)=O)C(=O)N[C@H]2C(=O)N[C@H]3C(=O)N[C@H](C(=O)N[C@H](C(=O)O)c4cc(O)cc(O)c4-c4cc3ccc4O)[C@H](O)c3ccc(c(Cl)c3)Oc3cc2cc(c3O[C@@H]2O[C@H](CO)[C@@H](O)[C@H](O)[C@H]2O[C@H]2C[C@](C)(N)[C@H](O)[C@H](C)O2)Oc2ccc(cc2Cl)[C@H]1O` [vancomycin], the “Css,trough that could satisfy AUC0-24/MIC ≥ 400 with less toxicity” value [1] is given as 5 to 15 µg/mL, the “Trough concentrations that can achieve AUC0-24/MIC ≥ 400” value [1] is given as “around 10 mg/L” and the Nephrotoxicity [2] is given as “higher nephrotoxicity”. For the same compound, the “θ1, typical value of clearance, Bootstrap median (95% CI)” value [3, 4] was 2.07 (1.94, 2.21) L/h, the “θ4, typical value of volume of distribution, Bootstrap median (95% CI)” value [3, 4] was 45.7 (41.6, 50.6) L and the “θ2, power of PMA/31.7 on clearance, Estimate (%RSE)” value ([3]; final model) was 0.795 (26%). For the same compound, the “θ3, power of CLcr/50.3 on clearance, Estimate (%RSE)” value ([3]; final model) was 0.741 (6%) and the “θ4, typical value of volume of distribution (TVV), Estimate (%RSE)” value ([3]; standardized to 70 kg (power 1), final model) was 45.6 (5%) L.
